The results in this text go back to patent US20090062253A1, “HETEROCYCLODIAZEPINE CANNABINOID RECEPTOR MODULATORS FOR TREATMENT OF DISEASE” (KALYPSYS, INC., priority 2007, published 2009).

Experiment [1] addresses T1, Human CB2 (Homo sapiens, UniProt P34972).
T1 construct: expressed in transfected cells; membrane preparation
The experiment in a line: Human CB2 Radioligand Binding Assay. The conditions noted are these: membranes from stably transfected CHO CB2 cells; competition with [3H] CP-55,940; read-out: CB2 Ligand Binding Asssay. Put shortly:
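Filtration competition against [3H]CP-55,940 at its Kd on membranes from CHO cells stably expressing human CB2; compounds at 10 uM single point or dose-response, 1% DMSO. Buffer 50 mM Tris-HCl pH 7.4, EGTA, MgCl2, 5.0 mg/ml BSA; 90 min at 30° C, scintillation read; 100 nM CP-55,940 = 100%.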

Experiment [2] concerns the target T2, human cannabinoid receptor type 1 (Homo sapiens, UniProt P21554).
T2 construct: purchased Perkin Elmer RBHCB1M; host or cells: HEK 293 EBNA cells
Put plainly: Human CB1 Radioligand Binding Assay (basis of selectivity CB2 vs. CB1). An outline of the steps:
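Filtration competition binding against [3H] CP-55,940 at its Kd, using membranes from HEK 293 EBNA cells expressing human CB1; 90 minutes at 30° C in 50 mM Tris-HCl pH 7.4, 2.5 mM EDTA, 5 mM MgCl2, 5.0 mg/ml BSA, 1% DMSO. Single point 10 uM or dose-response; 100 nM CP-55,940 defined 100% efficacy.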

T2 sequence (P21554 whole entry): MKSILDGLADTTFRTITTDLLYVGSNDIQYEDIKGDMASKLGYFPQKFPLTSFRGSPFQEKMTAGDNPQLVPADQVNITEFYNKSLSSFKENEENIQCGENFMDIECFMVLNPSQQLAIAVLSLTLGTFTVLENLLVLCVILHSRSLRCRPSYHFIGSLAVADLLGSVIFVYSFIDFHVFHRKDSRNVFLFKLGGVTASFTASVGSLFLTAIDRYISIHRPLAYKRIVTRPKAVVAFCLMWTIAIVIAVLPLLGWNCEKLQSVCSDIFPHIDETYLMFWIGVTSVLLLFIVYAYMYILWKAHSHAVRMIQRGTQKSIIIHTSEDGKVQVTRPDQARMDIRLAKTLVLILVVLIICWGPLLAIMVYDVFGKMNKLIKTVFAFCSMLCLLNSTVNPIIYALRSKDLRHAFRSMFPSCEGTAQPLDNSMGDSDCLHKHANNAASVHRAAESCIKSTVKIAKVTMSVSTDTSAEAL
T1 sequence (P34972 whole entry): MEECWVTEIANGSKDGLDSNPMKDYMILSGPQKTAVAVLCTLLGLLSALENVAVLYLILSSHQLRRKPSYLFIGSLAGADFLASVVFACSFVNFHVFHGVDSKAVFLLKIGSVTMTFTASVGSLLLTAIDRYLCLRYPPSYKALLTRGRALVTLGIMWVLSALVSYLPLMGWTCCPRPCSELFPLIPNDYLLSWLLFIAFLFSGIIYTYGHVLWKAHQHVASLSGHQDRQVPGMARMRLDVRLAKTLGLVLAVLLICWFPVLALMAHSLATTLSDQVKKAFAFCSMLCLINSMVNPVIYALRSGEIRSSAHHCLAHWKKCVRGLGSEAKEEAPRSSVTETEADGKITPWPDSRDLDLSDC

As for `CC(C)(C)c1ccc(C2c3nccn3CCCN2C(=O)c2ccc(F)cc2F)cc1` (stereo not shown) [Example 47, (9-(4-tert-Butylphenyl)-6,7-dihydro-5H-imidazo[1,2-a][1,4]diazepin-8(9H)-yl)(2,4-difluorophenyl)methanone], in experiment [1], the IC50 (radioligand displacement) is less than 1000 nM. Further, in experiment [2], the “Selectivity, CB2 vs. CB1” value is recorded as “− (− indicates < 10-fold)”.
`CC(C)(C)c1ccc(C2c3nccn3CCCN2C(=O)c2ccc(Cl)cc2Cl)cc1` (stereo not shown) [Example 48, (9-(4-tert-Butylphenyl)-6,7-dihydro-5H-imidazo[1,2-a][1,4]diazepin-8(9H)-yl)(2,4-dichlorophenyl)methanone]: the IC50 (radioligand displacement) in experiment [1] was more than 1000 nM. Besides, the “Selectivity, CB2 vs. CB1” value in experiment [2] is on record as “− (− indicates < 10-fold)”.
As for `CC(C)(C)c1ccc(C2c3cccn3CCCN2C(=O)c2ccc(Cl)cc2Cl)cc1` (stereo not shown) [Example 49, (1-(4-tert-Butylphenyl)-4,5-dihydro-1H-pyrrolo[1,2-a][1,4]diazepin-2(3H)-yl)(2,4-dichlorophenyl)methanone], in experiment [1], the IC50 (radioligand displacement) was less than 1000 nM. Further, the “Selectivity, CB2 vs. CB1” value in experiment [2] is “− (− indicates < 10-fold)”.
For `CC(C)(C)c1ccc(C2c3cccn3CCCN2C(=O)Cc2ccc(F)cc2)cc1` (stereo not shown) [Example 50, 1-(1-(4-tert-Butylphenyl)-4,5-dihydro-1H-pyrrolo[1,2-a][1,4]diazepin-2(3H)-yl)-2-(4-fluorophenyl)ethanone], in that order: less than 1000 nM and “− (− indicates < 10-fold)”.
For `CC(C)(C)c1ccc(C2c3cccn3CCCN2C(=O)Cc2c(F)cccc2F)cc1` (stereo not shown) [Example 51, 1-(1-(4-tert-Butylphenyl)-4,5-dihydro-1H-pyrrolo[1,2-a][1,4]diazepin-2(3H)-yl)-2-(2,6-difluorophenyl)ethanone], in that order: more than 1000 nM and “− (− indicates < 10-fold)”.
For `CC(C)(C)c1ccc(C2c3cccn3CCCN2C(=O)CN2CCOCC2)cc1` (stereo not shown) [Example 52, 1-(1-(4-tert-Butylphenyl)-4,5-dihydro-1H-pyrrolo[1,2-a][1,4]diazepin-2(3H)-yl)-2-morpholinoethanone], in that order: more than 1000 nM and “− (− indicates < 10-fold)”.
On to `CC(C)(C)c1ccc(C2c3cccn3CCCN2c2nc3ccccc3o2)cc1` (stereo not shown) [Example 53, 2-(1-(4-tert-Butylphenyl)-4,5-dihydro-1H-pyrrolo[1,2-a][1,4]diazepin-2(3H)-yl)benzo[d]oxazole], for which the IC50 (radioligand displacement) in experiment [1] was more than 1000 nM. In addition, the “Selectivity, CB2 vs. CB1” value in experiment [2] is given as “− (− indicates < 10-fold)”.
For `CC(C)(C)c1ccc(Cc2ccc3n2CCCN3c2nc3ccccc3o2)cc1` [Example 54, 2-(6-(4-tert-Butylbenzyl)-3,4-dihydropyrrolo[1,2-a]pyrimidin-1(2H)-yl)benzo[d]oxazole], in that order: more than 1000 nM and “− (− indicates < 10-fold)”.
For `CC(C)(C)c1ccc(C2=C(C(=O)Nc3ccc(F)cc3F)CCn3cccc32)cc1` [Example 56, 8-(4-tert-Butylphenyl)-N-(2,4-difluorophenyl)-5,6-dihydroindolizine-7-carboxamide], in that order: more than 1000 nM and “− (− indicates < 10-fold)”.
For `CC(C)(C)c1ccc(C2=C(C(=O)Nc3ccc(Cl)cc3Cl)CCn3cccc32)cc1` [Example 57, 8-(4-tert-Butylphenyl)-N-(2,4-dichlorophenyl)-5,6-dihydroindolizine-7-carboxamide], in that order: more than 1000 nM and “− (− indicates < 10-fold)”.
Turning to `CC(C)(C)c1ccc(C2=C(C(=O)Nc3ccc(OC(F)(F)F)cc3)CCn3cccc32)cc1` [Example 58, 8-(4-tert-Butylphenyl)-N-(4-(trifluoromethoxy)phenyl)-5,6-dihydroindolizine-7-carboxamide], the IC50 (radioligand displacement) in experiment [1] is more than 1000 nM. Moreover, in experiment [2], the “Selectivity, CB2 vs. CB1” value is “− (− indicates < 10-fold)”.
For `CC(C)(C)c1ccc(C2=C(C(=O)Nc3ccc(F)c(F)c3)CCn3cccc32)cc1` [Example 59, 8-(4-tert-Butylphenyl)-N-(3,4-difluorophenyl)-5,6-dihydroindolizine-7-carboxamide], in that order: less than 1000 nM and “+ (+ indicates > 10-fold)”.
For `CC(C)(C)c1ccc(C2=C(C(=O)Nc3ccc(Cl)cc3)CCn3cccc32)cc1` [Example 60, 8-(4-tert-Butylphenyl)-N-(4-chlorophenyl)-5,6-dihydroindolizine-7-carboxamide], in that order: less than 1000 nM and “− (− indicates < 10-fold)”.
For `CC(C)(C)c1ccc(C2=C(C(=O)Nc3ccc(F)cc3F)CCCn3cccc32)cc1` [Example 62, (E)-9-(4-tert-Butylphenyl)-N-(2,4-difluorophenyl)-6,7-dihydro-5H-pyrrolo[1,2-a]azepine-8-carboxamide], in that order: less than 1000 nM and “− (− indicates < 10-fold)”.
In the case of `CC(C)(C)c1ccc(C2=C(C(=O)Nc3ccc(Cl)cc3Cl)CCCn3cccc32)cc1` [Example 63, (E)-9-(4-tert-Butylphenyl)-N-(2,4-dichlorophenyl)-6,7-dihydro-5H-pyrrolo[1,2-a]azepine-8-carboxamide], the IC50 (radioligand displacement) in experiment [1] is less than 1000 nM. In experiment [2], the “Selectivity, CB2 vs. CB1” value is listed as “− (− indicates < 10-fold)”.
In the case of `CC(C)(C)c1ccc(C2=C(C(=O)Nc3ccc(C(F)(F)F)cc3)CCCn3cccc32)cc1` [Example 64, (E)-9-(4-tert-Butylphenyl)-N-(4-(trifluoromethyl)phenyl)-6,7-dihydro-5H-pyrrolo[1,2-a]azepine-8-carboxamide], the IC50 (radioligand displacement) in experiment [1] is less than 1000 nM. The “Selectivity, CB2 vs. CB1” value in experiment [2] was “− (− indicates < 10-fold)”.
For `CC(C)(C)c1ccc(C2=C(C(=O)Nc3ccc(F)c(F)c3)CCCn3cccc32)cc1` [Example 65, (E)-9-(4-tert-Butylphenyl)-N-(3,4-difluorophenyl)-6,7-dihydro-5H-pyrrolo[1,2-a]azepine-8-carboxamide], in experiment [1], the IC50 (radioligand displacement) is less than 1000 nM. For the same compound, the “Selectivity, CB2 vs. CB1” value in experiment [2] is recorded as “+ (+ indicates > 10-fold)”.
For `CC(C)(C)c1ccc(C2=C(C(=O)Nc3ccc(Cl)cc3)CCCn3cccc32)cc1` [Example 66, (E)-9-(4-tert-Butylphenyl)-N-(4-chlorophenyl)-6,7-dihydro-5H-pyrrolo[1,2-a]azepine-8-carboxamide], in that order: less than 1000 nM and “+ (+ indicates > 10-fold)”.
For `O=C(Nc1ccc(F)cc1F)C1=C(c2ccccc2)c2cccn2CCC1` [Example 73, (E)-N-(2,4-Difluorophenyl)-9-phenyl-6,7-dihydro-5H-pyrrolo[1,2-a]azepine-8-carboxamide], in that order: more than 1000 nM and “− (− indicates < 10-fold)”.
With `O=C(Nc1ccc(C(F)(F)F)cc1)C1=C(c2ccccc2)c2cccn2CCC1` [Example 74, (E)-9-Phenyl-N-(4-(trifluoromethyl)phenyl)-6,7-dihydro-5H-pyrrolo[1,2-a]azepine-8-carboxamide], the IC50 (radioligand displacement) in experiment [1] was more than 1000 nM. The “Selectivity, CB2 vs. CB1” value in experiment [2] is reported as “− (− indicates < 10-fold)”.
For `O=C(Nc1ccc(F)c(F)c1)C1=C(c2ccccc2)c2cccn2CCC1` [Example 75, (E)-N-(3,4-Difluorophenyl)-9-phenyl-6,7-dihydro-5H-pyrrolo[1,2-a]azepine-8-carboxamide], in that order: less than 1000 nM and “− (− indicates < 10-fold)”.
For `CC(C)(C)c1ccc(C2=C(C(=O)Nc3ccc(Cl)cc3)CCCn3cncc32)cc1` [Example 77, (E)-9-(4-tert-Butylphenyl)-N-(4-chlorophenyl)-6,7-dihydro-5H-imidazo[1,5-a]azepine-8-carboxamide], in that order: more than 1000 nM and “− (− indicates < 10-fold)”.
Take `CC(C)(C)c1ccc(C2=C(C(=O)Nc3ccc(F)cc3F)CCCn3cncc32)cc1` [Example 78, ((E)-9-(4-tert-Butylphenyl)-N-(2,4-difluorophenyl)-6,7-dihydro-5H-imidazo[1,5-a]azepine-8-carboxamide]: the IC50 (radioligand displacement) in experiment [1] was more than 1000 nM. In addition, the “Selectivity, CB2 vs. CB1” value in experiment [2] is reported as “− (− indicates < 10-fold)”.
For `CC(C)(C)c1ccc(C2=C(C(=O)Nc3ccc(Cl)c(Cl)c3)CCCn3cncc32)cc1` [Example 79, (E)-9-(4-tert-Butylphenyl)-N-(3,4-dichlorophenyl)-6,7-dihydro-5H-imidazo[1,5-a]azepine-8-carboxamide], in that order: less than 1000 nM and “− (− indicates < 10-fold)”.
For `CC(C)(C)c1ccc(C2=C(C(=O)Nc3ccc(Cl)cc3Cl)CCCn3cncc32)cc1` [Example 80, (E)-9-(4-tert-Butylphenyl)-N-(2,4-dichlorophenyl)-6,7-dihydro-5H-imidazo[1,5-a]azepine-8-carboxamide], in that order: more than 1000 nM and “− (− indicates < 10-fold)”.
For `CC(C)(C)c1ccc(CC2=C(C(=O)Nc3ccc(Cl)cc3)CCCn3cncc32)cc1` [Example 82, (E)-9-(4-tert-Butylbenzyl)-N-(4-chlorophenyl)-6,7-dihydro-5H-imidazo[1,5-a]azepine-8-carboxamide], in that order: more than 1000 nM and “− (− indicates < 10-fold)”.
